In patent US11091478B2 (Fochon Pharmaceuticals, Ltd., priority 2017, dated 2021) one finds IC50 data, which are given here for 14 molecules.

One assay relates to DOHH2 cells. As to the kind of experiment: Cell proliferation assay (MTS), DOHH2 cells, 120 h. It counts as cell-based. The conditions noted are these: Homo sapiens, DOHH-2, 120 h. The essentials: (§1)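 Cells in RPMI-1640 with 10% FBS were seeded at 5000/well, left overnight at 37° C., 5% CO2, then exposed to compound at 10000 down to 1.5 nM (nine concentrations) for 72 h (RS4;11) or 120 h (DOHH2). Viability was read by MTS, 2 h, absorbance at 490/650 nm; IC50 calculated.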

In a further assay the test system is RS4;11 cells. In words: Cell proliferation assay (MTS), RS4;11 cells, 72 h. The class given is cell-based. As to conditions: Homo sapiens, RS4-11, 72 h. The essentials: as §1

SMILES strings stand for the structures.

As to `COC(=O)NC[C@H]1COc2cc(S(=O)(=O)NC(=O)c3ccc(N4CCN(CC5=C(c6ccc(Cl)cc6)CC(C)(C)CC5)CC4)cc3Oc3cnc4[nH]ccc4c3)cc([N+](=O)[O-])c2N1` [Example 2-60, methyl (S)-((7-(N-(2-((1H-pyrrolo[2,3-b]pyridin-5-yl)oxy)-4-(4-((4′-chloro-5,5-dimethyl-3,4,5,6-tetrahydro-[1,1′-biphenyl]-2-yl)methyl)piperazin-1-yl)benzoyl)sulfamoyl)-5-nitro-3,4-dihydro-2H-benzo[b][1,4]oxazin-3-yl)meth-yl)carbamate], the IC50 in the assay on DOHH2 cells is 82 nM; with RS4;11 cells, 1 nM.

For `CC1(C)CCC(CN2CCN(c3ccc(C(=O)NS(=O)(=O)c4cc5c(c([N+](=O)[O-])c4)N[C@@H](CNC(=O)OC4CCOCC4)CO5)c(Oc4cnc5[nH]ccc5c4)c3)CC2)=C(c2ccc(Cl)cc2)C1` [Example 2-61, tetrahydro-2H-pyran-4-yl (S)-((7-(N-(2-((1H-pyrrolo[2,3-b]pyridin-5-yl)oxy)-4-(4-((4′-chloro-5,5-dimethyl-3,4,5,6-tetrahydro-[1,1′-biphenyl]-2-yl)methyl)piperazin-1-yl)benzoyl)sulfamoyl)-5-nitro-3,4-dihydro-2H-benzo[b][1,4]oxazin-3-yl)methyl)carbamate], the IC50 stood at 444 nM with DOHH2 cells and 48 nM in the assay with RS4;11 cells.

For the molecule `COC(=O)NCC[C@@H]1COc2cc(S(=O)(=O)NC(=O)c3ccc(N4CCN(CC5=C(c6ccc(Cl)cc6)CC(C)(C)CC5)CC4)cc3Oc3cnc4[nH]ccc4c3)cc([N+](=O)[O-])c2N1` [Example 2-63, methyl (R)-(2-(7-(N-(2-((1H-pyrrolo[2,3-b]pyridin-5-yl)oxy)-4-(4-((4′-chloro-5,5-dimethyl-3,4,5,6-tetrahydro-[1,1′-biphenyl]-2-yl)methyl)piperazin-1-yl)benzoyl)sulfamoyl)-5-nitro-3,4-dihydro-2H-benzo[b][1,4]oxazin-3-yl)ethyl)carbamate], the IC50 in the assay on DOHH2 cells was determined as 64 nM; in the assay on RS4;11 cells it was 12 nM.

For the molecule `CC1(C)CCC(CN2CCN(c3ccc(C(=O)NS(=O)(=O)c4cc5c(c([N+](=O)[O-])c4)N[C@H](CCS(C)(=O)=O)CO5)c(Oc4cnc5[nH]ccc5c4)c3)CC2)=C(c2ccc(Cl)cc2)C1` [Example 2-64, (R)-2-((1H-pyrrolo[2,3-b]pyriidn-5-yl)oxy)-4-(4-((4′-chloro-5,5-dimethyl-3,4,5,6-tetra-hydro-[1,1′-biphenyl]-2-yl)methyl)piperazin-1-yl)-N-((3-(2-(methylsulfonyl)ethyl)-5-nitro-3,4-dihydro-2H-benzo[b][1,4]oxazin-7-yl)sulfonyl)benzamide], the IC50 worked out at 70 nM with DOHH2 cells and 25 nM in the assay with RS4;11 cells.

Turning to `COCC[C@@H]1COc2cc(S(=O)(=O)NC(=O)c3ccc(N4CCN(CC5=C(c6ccc(Cl)cc6)CC(C)(C)CC5)CC4)cc3Oc3cnc4[nH]ccc4c3)cc([N+](=O)[O-])c2N1` [Example 2-65, (R)-2-((1H-pyrrolo[2,3-b]pyridin-5-yl)oxy)-4-(4-((4′-chloro-5,5-dimethyl-3,4,5,6-tetra-hydro-[1,1′-biphenyl]-2-yl)methyl)piperazin-1-yl)-N-((3-(2-methoxyethyl)-5-nitro-3,4-dihydro-2H-benzo[b][1,4]oxazin-7-yl)sulfonyl)benzamide], the IC50 was determined as 14 nM with DOHH2 cells and 20 nM in the assay with RS4;11 cells.

Turning to `CC1(C)CCC(CN2CCN(c3ccc(C(=O)NS(=O)(=O)c4cc5c(c([N+](=O)[O-])c4)N[C@@H](CNS(C)(=O)=O)CO5)c(Oc4cnc5[nH]ccc5c4)c3)CC2)=C(c2ccc(Cl)cc2)C1` [Example 2-66, (S)-2-((1H-pyrrolo[2,3-b]pyridin-5-yl)oxy)-4-(4-((4′-chloro-5,5-dimethyl-3,4,5,6-tetra-hydro-[1,1′-biphenyl]-2-yl)methyl)piperazin-1-yl)-N-((3-(methylsulfonamidomethyl)-5-nitro-3,4-dihydro-2H-benzo[b][1,4]oxazin-7-yl)sulfonyl)benzamide], the IC50 in the assay on DOHH2 cells was 13 nM; in the assay on RS4;11 cells it was 18 nM.

`CC1(C)CCC(CN2CCN(c3ccc(C(=O)NS(=O)(=O)c4cc5c(c([N+](=O)[O-])c4)N[C@H](CCNS(C)(=O)=O)CO5)c(Oc4cnc5[nH]ccc5c4)c3)CC2)=C(c2ccc(Cl)cc2)C1` [Example 2-68, (R)-2-((1H-pyrrolo[2,3-b]pyridin-5-yl)oxy)-4-(4-((4′-chloro-5,5-dimethyl-3,4,5,6-tetra-hydro-[1,1′-biphenyl]-2-yl)methyl)piperazin-1-yl)-N-((3-(2-(methysulfonamido)ethyl)-5-nitro-3,4-dihydro-2H-benzo[b][1,4]oxa-zin-7-yl)sulfonyl)benzamide]: the IC50 amounted to 83 nM with DOHH2 cells and 26 nM in the assay on RS4;11 cells.

`CC1(C)CCC(CN2CCN(c3ccc(C(=O)NS(=O)(=O)c4cc5c(c([N+](=O)[O-])c4)N[C@H](CN=S(C)(C)=O)CO5)c(Oc4cnc5[nH]ccc5c4)c3)CC2)=C(c2ccc(Cl)cc2)C1` [Example 2-70, (R)-2-((1H-pyrrolo[2,3-b]pyridin-5-yl)oxy)-4-(4-((4′-chloro-5,5-dimethyl-3,4,5,6-tetra-hydro-[1,1′-biphenyl]-2-yl)methyl)piperazin-1-yl)-N-((3-(((dimethyl(oxo)-λ^6-sulfanyl-idene)amino)methyl)-5-nitro-3,4-dihydro-2H-benzo[b][1,4]oxazin-7-yl)sulfonyl)benza-mide]: the IC50 came to 28 nM in the assay on DOHH2 cells and 5 nM with RS4;11 cells.

Take `CC1(C)CCC(CN2CCN(c3ccc(C(=O)NS(=O)(=O)c4cc5c(c([N+](=O)[O-])c4)N[C@H](CN=S4(=O)CCCC4)CO5)c(Oc4cnc5[nH]ccc5c4)c3)CC2)=C(c2ccc(Cl)cc2)C1` [Example 2-71, (R)-2-((1H-pyrrolo[2,3-b]pyridin-5-yl)oxy)-4-(4-((4′-chloro-5,5-dimethyl-3,4,5,6-tetra-hydro-[1,1′-biphenyl]-2-yl)methyl)piperazin-1-yl)-N-((5-nitro-3-(((1-oxidotetrahydro-1λ^6-thiophen-1-ylidene)amino)methyl)-3,4-dihydro-2H-benzo[b][1,4]oxazin-7-yl)sulfo-nyl)benzamide]: the IC50 turned out to be 43 nM in the assay with DOHH2 cells and 58 nM with RS4;11 cells.

For the molecule `CC1(C)CCC(CN2CCN(c3ccc(C(=O)NS(=O)(=O)c4cc5c(c([N+](=O)[O-])c4)N[C@H](CN=S4(=O)CCOCC4)CO5)c(Oc4cnc5[nH]ccc5c4)c3)CC2)=C(c2ccc(Cl)cc2)C1` [Example 2-72, (R)-2-((1H-pyrrolo[2,3-b]pyridin-5-yl)oxy)-4-(4-((4′-chloro-5,5-dimethyl-3,4,5,6-tetra-hydro-[1,1′-biphenyl]-2-yl)methyl)piperazin-1-yl)-N-((5-nitro-3-(((4-oxido-1,4λ^6-oxa-thian-4-ylidene)amino)methyl)-3,4-dihydro-2H-benzo[b][1,4]oxazin-7-yl)sulfonyl)ben-zamide], the IC50 in the assay with DOHH2 cells is 24 nM; in the assay on RS4;11 cells, 6 nM.

On to `CC1(C)CCC(CN2CCN(c3ccc(C(=O)NS(=O)(=O)c4cc5c(c([N+](=O)[O-])c4)N[C@H](CCN=S4(=O)CCCC4)CO5)c(Oc4cnc5[nH]ccc5c4)c3)CC2)=C(c2ccc(Cl)cc2)C1` [Example 2-73, (R)-2-((1H-pyrrolo[2,3-b]pyridin-5-yl)oxy)-4-(4-((4′-chloro-5,5-dimethyl-3,4,5,6-tetra-hydro-[1,1′-biphenyl]-2-yl)methyl)piperazin-1-yl)-N-((5-nitro-3-(2-((1-oxidotetrahydro-1λ^6-thiophen-1-ylidene)amino)ethyl)-3,4-dihydro-2H-benzo[b][1,4]oxazin-7-yl)sulfonyl)benzamide], for which the IC50 was found to be 69 nM in the assay with DOHH2 cells and 79 nM with RS4;11 cells.

With `CC1(C)CCC(CN2CCN(c3ccc(C(=O)NS(=O)(=O)c4cc5c(c([N+](=O)[O-])c4)N[C@H](CCN=S4(=O)CCOCC4)CO5)c(Oc4cnc5[nH]ccc5c4)c3)CC2)=C(c2ccc(Cl)cc2)C1` [Example 2-74, (R)-2-((1H-pyrrolo[2,3-b]pyridin-5-yl)oxy)-4-(4-((4′-chloro-5,5-dimethyl-3,4,5,6-tetra-hydro-[1,1′-biphenyl]-2-yl)methyl)piperazin-1-yl)-N-((5-nitro-3-(2-((4-oxido-1,4λ^6-ox-athian-4-lidene)amino)ethyl)-3,4-dihydro-2H-benzo[b][1,4]oxazin-7-yl)sulfonyl)ben-zamide], the IC50 with DOHH2 cells came to 108 nM; in the assay on RS4;11 cells, 64 nM.

With `CC1(C)CCC(CN2CCN(c3ccc(C(=O)NS(=O)(=O)c4cc5c(c([N+](=O)[O-])c4)N[C@@H](CN=S(C)(C)=O)CO5)c(Oc4cnc5[nH]ccc5c4)c3)CC2)=C(c2ccc(Cl)cc2)C1` [Example 2-75, (S)-2-((1H-pyrrolo[2,3-b]pyridin-5-yl)oxy)-4-(4-((4′-chloro-5,5-dimethyl-3,4,5,6-tetra-hydro-[1,1′-biphenyl]-2-yl)methyl)piperazin-1-yl)-N-((3-(((dimethyl(oxo)-λ^6-sulfanyl-idene)amino)methyl)-5-nitro-3,4-dihydro-2H-benzo[b][1,4]oxazin-7-yl)sulfonyl)benza-mide], the figures for the IC50 in the assay on DOHH2 cells and in the assay on RS4;11 cells were 64 nM and 1 nM, respectively.

As to `CC1(C)CCC(CN2CCN(c3ccc(C(=O)NS(=O)(=O)c4cc5c(c([N+](=O)[O-])c4)N[C@@H](CN=S4(=O)CCOCC4)CO5)c(Oc4cnc5[nH]ccc5c4)c3)CC2)=C(c2ccc(Cl)cc2)C1` [Example 2-77, (S)-2-((1H-pyrrolo[2,3-b]pyridin-5-yl)oxy)-4-(4-((4′-chloro-5,5-dimethyl-3,4,5,6-tetra-hydro-[1,1′-biphenyl]-2-yl)methyl)piperazin-1-yl)-N-((5-nitro-3-(((4-oxido-1,4λ^6-oxa-thian-4-ylidene)amino)methyl)-3,4-dihydro-2H-benzo[b][1,4]oxazin-7-yl)sulfonyl)ben-zamide], the IC50 was 602 nM in the assay with DOHH2 cells and 50 nM in the assay with RS4;11 cells.
